This note sets out measurements from the ASAP Discovery antiviral challenge data (2025).

Values after ≈ are worked out from the molar mass of the structure shown. Values joined by “and” are separate entries in the source; they are usually repeats but may differ in a detail not shown here. Equal entries are not always repeated.

For data set [1] the following is noted: mdck_mdr1.
Test in data set [2]: not given
This is another data set of the same source.

The conditions of data set [3]: human; liver_microsomes.
For data set [4] the following is noted: mouse; liver_microsomes.

`NCc1cccc(NC(=O)CN(C(=O)OCc2ccccc2)c2ccc(OCc3ccccc3)cc2)c1`: the solubility (kinetic) amounted to 56 µM (≈ 27.8 µg/mL). The molecule further yielded a Papp in data set [1] of 0.899 ×10⁻⁶ cm/s. Besides, in data set [2], the logD came out at 2.9. The same molecule registered a microsomal CLint in data set [3] of 11 µL/min/mg.
For the molecule `N#C[C@H](Nc1cccc(C(=O)O)c1)c1cc(Cl)cc2[nH]ncc12` (racemic), the kinetic solubility was found to be 112 µM (≈ 36.6 µg/mL). For the same molecule, in data set [1], the Papp came out at 1.22 ×10⁻⁶ cm/s. In data set [2], this molecule had a log distribution coefficient (logD) of 0.6. The same molecule yielded a microsomal CLint in data set [3] of 12 µL/min/mg.
On to `CCNC(=O)c1cc2c(N[C@H](c3ccc4c(c3)OCCO4)C(C)C)ncnc2[nH]1` (single isomer, unassigned), for which, in data set [1], the apparent permeability coefficient (Papp) was 2.7 ×10⁻⁶ cm/s and 2.9 ×10⁻⁶ cm/s. The molecule further registered a logD in data set [2] of 3.6. In data set [4], the microsomal CLint is 48 µL/min/mg and 72 µL/min/mg.
As for `N#C[C@H](Nc1cccc(-c2nn[nH]n2)c1)c1cc(Cl)cc(NC(=O)OCc2ccccc2)c1` (racemic), the solubility (kinetic) amounted to 344 µM (≈ 158 µg/mL). Also, the Papp in data set [1] came out at 3.23 ×10⁻⁶ cm/s. In data set [2], this molecule yielded a logD of 3.2. This molecule also came in with a microsomal CLint in data set [3] of 13.6 µL/min/mg.
For the molecule `NCc1cccc(NC(=O)[C@H](NC(=O)OCc2ccccc2)C(C2CCC2)C2CCC2)c1` (racemic), the Papp in data set [1] was found to be 1.6 ×10⁻⁶ cm/s. Further, the logD in data set [2] came out at 2.5. The microsomal CLint in data set [3] turned out to be 12.6 µL/min/mg.
For `Cc1c(C(=O)Nc2cc([C@H]3CCOC3)ccn2)cc(C2CC2)n1C` (racemic), the Papp in data set [1] stood at 27.2 ×10⁻⁶ cm/s. The molecule further returned a logD in data set [2] of 3. Also, the microsomal CLint in data set [3] was 57.7 µL/min/mg.
Molecule `NCc1cccc(NC(=O)c2cc(OCc3ccccc3)ccc2CNC(=O)OCc2ccccc2)c1` registered a solubility (kinetic) of 14 µM (≈ 6.94 µg/mL). The same molecule displayed a Papp in data set [1] of 1.75 ×10⁻⁶ cm/s. In addition, in data set [2], the logD was found to be 2.8. This molecule came in with a microsomal CLint in data set [3] of 21 µL/min/mg.
Consider `O=C(Nc1cc(Cl)cc(C(=O)Nc2ccc3c(c2)CNC3)c1)OCc1ccccc1`, for which the solubility (kinetic) came to 35 µM (≈ 14.8 µg/mL). In addition, in data set [1], the Papp came out at 1.25 ×10⁻⁶ cm/s. This molecule also registered a logD in data set [2] of 2.8. In data set [3], this molecule yielded a microsomal CLint of 12.7 µL/min/mg.
Regarding `NCc1cccc([C@H]2C[C@@H]2c2cc(Cl)cc(NC(=O)OCc3ccccc3)c2)c1` (racemic), the kinetic solubility was determined as 50 µM (≈ 20.3 µg/mL). The molecule further returned a Papp in data set [1] of 1.66 ×10⁻⁶ cm/s. For the same molecule, the microsomal CLint in data set [3] is 11.4 µL/min/mg.
On to `O=C(N[C@H]1[C@H]2CCCCC[C@H]2[C@H]1C(=O)Nc1cccc(C2CCNCC2)c1)OCc1ccccc1` (racemic), for which the kinetic solubility was 49 µM (≈ 23.3 µg/mL). The molecule also returned a Papp in data set [1] of 0.395 ×10⁻⁶ cm/s. Also, the logD in data set [2] was determined as 2.8. Further, the microsomal CLint in data set [3] is 31.3 µL/min/mg.
For the molecule `Cc1c(C(=O)Nc2cc(-c3cccnc3)ccn2)cc(C2CC2)n1C`, the solubility (kinetic) was determined as 176 µM (≈ 58.5 µg/mL). Further, in data set [1], the Papp is 13.5 ×10⁻⁶ cm/s. Also, the intrinsic metabolic clearance (microsomal CLint) in data set [4] was 388 µL/min/mg.
With `CNC(=O)c1cccc(-c2cc3c(N[C@H](c4ccc5c(c4)S(=O)(=O)CCC5)C(C)C)ncnc3[nH]2)c1` (single isomer, unassigned), the kinetic solubility is 13 µM and 15 µM. In addition, the Papp in data set [1] was 0.502 ×10⁻⁶ cm/s and 0.627 ×10⁻⁶ cm/s. Also, the logD in data set [2] is 3.8 and 3.7. The microsomal CLint in data set [3] is 746 µL/min/mg and 455 µL/min/mg.
With `NCCc1ccc(NC(=O)c2cc(Cl)cc(NC(=O)OCc3ccccc3)c2)cc1`, the kinetic solubility is 88 µM (≈ 37.3 µg/mL). The Papp in data set [1] amounted to 0.791 ×10⁻⁶ cm/s. The logD in data set [2] is 2.9. The molecule also returned a microsomal CLint in data set [3] of 17.5 µL/min/mg.
`O=C(O)c1cc(Cl)ccc1S(=O)(=O)NC1CCN(c2nc(C3CC3)cc(C(F)(F)F)n2)CC1`: the solubility (kinetic) came out at 380 µM (≈ 192 µg/mL). In data set [1], the Papp came to 3.65 ×10⁻⁶ cm/s. In data set [2], the logD stood at 2.8. Moreover, the microsomal CLint in data set [3] stood at 26.3 µL/min/mg.
The molecule `CC(C)CNC(=O)c1cc(Cl)c(F)cc1NS(=O)(=O)c1ccc(Oc2ccccc2Cl)cc1` came in with a solubility (kinetic) of 4 µM (≈ 2.05 µg/mL). Moreover, in data set [1], the Papp came out at 2.39 ×10⁻⁶ cm/s. In addition, the microsomal CLint in data set [3] came out at 198 µL/min/mg.
In turn, `Cc1cc(-c2ccc([C@H](NC(=O)OCc3ccccc3)C(=O)Nc3cccc(CN)c3)cc2)cs1` (racemic) gave a kinetic solubility of 8 µM (≈ 3.88 µg/mL). This molecule also returned an apparent permeability coefficient (Papp) in data set [1] of 1.19 ×10⁻⁶ cm/s. Also, the microsomal CLint in data set [3] turned out to be 29.5 µL/min/mg.
As to `COc1ccc([C@H](Cc2nnn[nH]2)NC(=O)c2ncnc3[nH]ccc23)cc1` (racemic), the kinetic solubility came to 395 µM (≈ 144 µg/mL). Also, in data set [1], the Papp was 1.39 ×10⁻⁶ cm/s. The same molecule came in with a logD in data set [2] of -0.1. The molecule further returned a microsomal CLint in data set [3] of 5 µL/min/mg.
As to `C=CC[C@H](Nc1ccc(-c2nn[nH]n2)cc1)c1cc(Cl)cc(NC(=O)OCc2ccccc2)c1` (racemic), the Papp in data set [1] came to 2.6 ×10⁻⁶ cm/s. Besides, the logD in data set [2] is 3.9. Also, the microsomal CLint in data set [3] turned out to be 10.1 µL/min/mg.
Molecule `NCc1cccc(NC(=O)c2cc(Cl)cc(CN)c2)c1` had a kinetic solubility of 375 µM (≈ 109 µg/mL). The molecule also came in with a Papp in data set [1] of 1.96 ×10⁻⁶ cm/s. In addition, the logD in data set [2] was -0.6. In addition, the microsomal CLint in data set [3] came out at 21 µL/min/mg.
With `CC(C)[C@H](Nc1ncnc2[nH]ccc12)c1ccc2c(c1)S(=O)(=O)CCC2` (single isomer, unassigned), the solubility (kinetic) was 374 µM and 386 µM. For the same molecule, the Papp in data set [1] was 5.5 ×10⁻⁶ cm/s and 3.55 ×10⁻⁶ cm/s. Besides, the logD in data set [2] was 2.7 and 2.5. In data set [3], the microsomal CLint is 57 µL/min/mg and 21 µL/min/mg.
In data set [1], `c1ccc2c(CN3CCC(c4c[nH]c5cccnc45)CC3)c[nH]c2c1` showed a Papp of 4.6 ×10⁻⁶ cm/s. This molecule also showed a microsomal CLint in data set [3] of 16 µL/min/mg.
